Test results taken from US20250129092A1, “COMPOUNDS USEFUL IN MODULATION OF AHR SIGNALLING” (JAGUAHR THERAPEUTICS PTE LTD, priority 2021, published 2025).

How the values were obtained:
AhR [1] = target: T1, AhR (Homo sapiens, UniProt P35869); experiment: AhR antagonism in U937 cells (Promega P450-Glo assay); type: cell-based; set-up: endogenous in cells; host or cells: U937 cells; settings: CYP1A1 activity readout (Luciferin-CEE), head names VAF347, average, read-out: U937 Antagonist pIC50-VAF347: av. pIC50 (converted)
T1 sequence (P35869 11-848): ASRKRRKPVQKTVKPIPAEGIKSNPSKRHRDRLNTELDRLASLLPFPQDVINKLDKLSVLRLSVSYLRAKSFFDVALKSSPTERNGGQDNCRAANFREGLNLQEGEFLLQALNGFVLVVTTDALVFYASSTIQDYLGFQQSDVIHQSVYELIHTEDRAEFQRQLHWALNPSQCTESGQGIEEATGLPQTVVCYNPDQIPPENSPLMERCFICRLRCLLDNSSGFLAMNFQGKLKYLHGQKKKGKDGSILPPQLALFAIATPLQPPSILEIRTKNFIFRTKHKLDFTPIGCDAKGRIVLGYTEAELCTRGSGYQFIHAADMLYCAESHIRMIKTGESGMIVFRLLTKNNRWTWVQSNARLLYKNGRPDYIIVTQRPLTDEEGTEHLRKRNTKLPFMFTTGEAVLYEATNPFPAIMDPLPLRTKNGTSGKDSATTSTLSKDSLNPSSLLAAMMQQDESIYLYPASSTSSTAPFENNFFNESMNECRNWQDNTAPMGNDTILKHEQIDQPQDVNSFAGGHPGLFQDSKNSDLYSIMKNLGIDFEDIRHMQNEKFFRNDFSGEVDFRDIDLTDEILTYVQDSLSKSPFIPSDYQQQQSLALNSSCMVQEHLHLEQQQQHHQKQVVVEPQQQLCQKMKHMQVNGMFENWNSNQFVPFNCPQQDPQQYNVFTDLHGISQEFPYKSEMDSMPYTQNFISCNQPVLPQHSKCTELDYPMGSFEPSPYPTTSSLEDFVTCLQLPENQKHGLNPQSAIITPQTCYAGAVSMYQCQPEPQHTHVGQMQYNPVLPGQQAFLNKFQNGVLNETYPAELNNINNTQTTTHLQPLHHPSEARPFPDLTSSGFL
Description: In Vitro Assay 1: AhR Antagonism in U937 Cells (Promega P450-Glo™ Assay)
AhR antagonism was assessed in LJ937 cells (myeloid lineage cell line derived from a human histiocytic lymphoma). Ligand binds the AhR in the cytoplasm, and the AhR-ligand complex translocates to the nucleus and forms a heterodimer with AhR nuclear translocator (Arnt). This complex binds the xenobiotic response element (XRE) in the 5′ upstream region of the CYP1A1 promoter, enhancing CYP1A1 expression. CYP1A1 activity is subsequently determined by assessing the conversion of Luciferin-CEE to luciferin, which in turn reacts with luciferase to produce light. The amount of light produced is directly proportional to cytochrome P450 activity. U937 cells in Ultraculture serum free media (Lonza) were plated at 100,000 cells per well in a round bottom 96 well tissue culture plate. […] The plates were then placed in an incubator at 37° C., ≥85% humidity, 5% CO2 for 24 hrs. After aspiration of the supernatant the CYP1A1 substrate Luciferin-CEE ([Final] 83 μM) was added and incubated for 3 hrs before the reaction was stopped by adding luciferin detection reagent and luminescence was read after 20 minutes.

AhR [2] = target: T1, AhR; experiment: AhR antagonism in human PBMCs - inhibition of IL-22 release; type: cell-based; set-up: endogenous in cells; settings: human PBMCs activated with CD3/CD28 agonist mixture, 72 hrs, IL-22 ELISA; average; read-out: hPBMC Inhibition of CD3/CD28 induced IL-22 release: av. pIC50 (converted)
Excerpt: In Vitro Assay 3: AhR Antagonism in Human Peripheral Blood Mononuclear Cells (PBMCs)-Inhibition of Interleukin-22 (IL-22) Release.
PBMCs were isolated from human peripheral blood using Lymphoprep™ and diluted to 1×10^6 cells per ml in RPMI media containing […] foetal bovine serum, 1% penicillin-streptomycin and 1% non essential amino acids. PBMCs were subsequently activated with 1p1 per 100,000 cells of a CD3/CD28 agonist mixture (human T Cell TransAct™ (Miltenyi Biotec)) and then plated at 100,000 cells per well in a round bottom 96 well tissue culture plate. One hour after stimulation seven concentrations of each test compound or vehicle (final [DMSO] 0.2%) were added. The plates were then placed in an incubator at 37° C., ≥85% humidity, 5% […] for 72 hrs before the media was removed and stored at −20° C. until cytokine analysis. IL-22 was measured using human IL-22 DuoSet ELISA (R&D systems) according to the manufacturer's instructions.

| SMILES | IC50 (AhR [1]) | IC50 (AhR [2]) |
| --- | --- | --- |
| COC[C@@H]1COc2c(NCCc3c[nH]c4ccccc34)nc(-c3ccc[nH]c3=O)nc2N1 [Example 26, (R)-3-(4-((2-(1H-indol-3-yl)ethyl)amino)-7-(methoxymethyl)-7,8-dihydro-6H-pyrimido[5,4-b][1,4]oxazin-2-yl)pyridin-2(1H)-one] | 4.79 nM | 0.724 nM |
| O=c1[nH]cccc1-c1nc(NCCc2c[nH]c3ccccc23)c2c(n1)N[C@H](CO)CO2 [Example 27, (R)-3-(4-((2-(1H-indol-3-yl)ethyl)amino)-7-(hydroxymethyl)-7,8-dihydro-6H-pyrimido[5,4-b][1,4]oxazin-2-yl)pyridin-2 (1H)-one] | 4.9 nM | 2.14 nM |
| CN1CCOc2c(NCCc3c[nH]c4ccccc34)nc(-c3ccc[nH]c3=O)nc21 [Example 44, 3-(4-((2-(1H-indol-3-yl)ethyl)amino)-8-methyl-7,8-dihydro-6H-pyrimido[5,4-b][1,4]oxazin-2-yl)pyridin-2 (1H)-one] | 10.2 nM | < 1.55 nM |
| Fc1cc(F)cc(-c2nc3c(c(NCCc4c[nH]c5ccccc45)n2)OCCN3)c1 [Example 3, 2-(3,5-difluorophenyl)-N-[2-(1H-indol-3-yl)ethyl]-7,8-dihydro-6H-pyrimido[5,4-b][1,4]oxazin-4-amine] | 3.55 nM | 3.98 nM |
| Cc1ncc(-c2nc3c(c(NC4Cc5cccc6[nH]cc(c56)C4)n2)OCCN3)s1 (stereo not drawn) [Example 14, 2-(2-methylthiazol-5-yl)-N-(1,3,4,5-tetrahydrobenzo[cd]indol-4-yl)-7,8-dihydro-6H-pyrimido[5,4-b][1,4]oxazin-4-amine] | 74.1 nM | 100 nM |
| O=c1[nH]cccc1-c1nc2c(c(NCCc3c[nH]c4ccccc34)n1)OCCN2 [Example 17, 3-[4-[2-(1H-indol-3-yl)ethylamino]-7,8-dihydro-6H-pyrimido[5,4-b][1,4]oxazin-2-yl]-1H-pyridin-2-one] | 3.8 nM | 1.66 nM |
| Cc1ncc(-c2nc(N[C@@H]3CCc4[nH]c5ccccc5c4C3)c3c(n2)N(CCN(C)C)[C@H](CO)CO3)s1 [Example 36, [(7R)-8-[2-(dimethylamino)ethyl]-2-(2-methylthiazol-5-yl)-4-[[(3R)-2,3,4,9-tetrahydro-1H-carbazol-3-yl]amino]-6,7-dihydropyrimido[5,4-b][1,4]oxazin-7-yl]methanol] | > 1000 nM | 1070 nM |
| Fc1cncc(-c2nc3c(c(N[C@@H]4CCc5[nH]c6ccccc6c5C4)n2)OCCN3)c1 [Example 4, 2-(5-fluoro-3-pyridyl)-N-[(3R)-2,3,4,9-tetrahydro-1H-carbazol-3-yl]-7,8-dihydro-6H-pyrimido[5,4-b][1,4]oxazin-4-amine] | 16.2 nM | 83.2 nM |
| COC[C@H]1COc2c(NCCc3c[nH]c4ccccc34)nc(-c3cncc(F)c3)nc2N1 [Example 28, (7S)-2-(5-fluoro-3-pyridyl)-N-[2-(1H-indol-3-yl)ethyl]-7-(methoxymethyl)-7,8-dihydro-6H-pyrimido[5,4-b][1,4]oxazin-4-amine] | 0.513 nM | 0.617 nM |
| Cc1ncc(-c2nc3c(c(N[C@@H]4CCc5[nH]c6ccccc6c5C4)n2)OCC(CN(C)C)N3)s1 (mixture of isomers) [Example 38, 7-[(dimethylamino)methyl]-2-(2-methylthiazol-5-yl)-N-[(3R)-2,3,4,9-tetrahydro-1H-carbazol-3-yl]-7,8-dihydro-6H-pyrimido[5,4-b][1,4]oxazin-4-amine] | 66.1 nM | 89.1 nM |
| O=c1[nH]cccc1-c1nc2c(c(NCCc3c[nH]c4cc(F)ccc34)n1)OCCN2 [Example 21, 3-[4-[2-(6-fluoro-1H-indol-3-yl)ethylamino]-7,8-dihydro-6H-pyrimido[5,4-b][1,4]oxazin-2-yl]-1H-pyridin-2-one] | 2.75 nM | 1.45 nM |

Further lines, results first:

| IC50 (AhR [1]) | IC50 (AhR [2]) | SMILES |
| --- | --- | --- |
| 0.759 nM | < 1.35 nM | COC[C@@H]1COc2c(NCCc3c[nH]c4ccccc34)nc(-c3cncc(F)c3)nc2N1 [Example 46, (7R)-2-(5-fluoro-3-pyridyl)-N-[2-(1H-indol-3-yl)ethyl]-7-(methoxymethyl)-7,8-dihydro-6H-pyrimido[5,4-b][1,4]oxazin-4-amine] |
| 339 nM | 1260 nM | Cc1ncc(-c2nc3c(c(N[C@@H]4Cc5cccc6[nH]cc(c56)C4)n2)OCCN3)s1 (single isomer, unassigned) [Example 61] |
| 93.3 nM | 158 nM | O=c1[nH]cccc1-c1nc2c(c(N[C@@H]3CCc4[nH]c5ccccc5c4C3)n1)OCCN2 [Example 63, 3-[4-[[(3R)-2,3,4,9-tetrahydro-1H-carbazol-3-yl]amino]-7,8-dihydro-6H-pyrimido[5,4-b][1,4]oxazin-2-yl]-1H-pyridin-2-one] |
| 229 nM | 501 nM | Cc1ncc(-c2nc3c(c(N[C@@H]4CCc5[nH]c6ccccc6c5C4)n2)OC[C@@H](CO)N3)s1 [Example 54, [(7R)-2-(2-methylthiazol-5-yl)-4-[[(3R)-2,3,4,9-tetrahydro-1H-carbazol-3-yl]amino]-7,8-dihydro-6H-pyrimido[5,4-b][1,4]oxazin-7-yl]methanol] |
| 81.3 nM | 759 nM | COC[C@@H]1COc2c(nc(-c3cnc(C)s3)nc2N[C@@H]2CCc3[nH]c4ccccc4c3C2)N1 [Example 53, (7R)-7-(methoxymethyl)-2-(2-methylthiazol-5-yl)-N-[(3R)-2,3,4,9-tetrahydro-1H-carbazol-3-yl]-7,8-dihydro-6H-pyrimido[5,4-b][1,4]oxazin-4-amine] |
| 4.37 nM | 1.62 nM | COC[C@@H]1COc2c(nc(-c3ccc[nH]c3=O)nc2OCCc2c[nH]c3ccccc23)N1 [Example 48, 3-[(7R)-4-[2-(1H-indol-3-yl)ethoxy]-7-(methoxymethyl)-7,8-dihydro-6H-pyrimido[5,4-b][1,4]oxazin-2-yl]-1H-pyridin-2-one] |
| 3.09 nM | 2 nM | COC[C@@H]1COc2c(NCCc3c[nH]c4ccccc34)nc(-c3cccc(F)c3)nc2N1 [Example 57, (7R)-2-(3-fluorophenyl)-N-[2-(1H-indol-3-yl)ethyl]-7-(methoxymethyl)-7,8-dihydro-6H-pyrimido[5,4-b][1,4]oxazin-4-amine] |
| 5.5 nM | 22.4 nM | Fc1cccc(-c2nc3c(c(NCCc4c[nH]c5ccccc45)n2)OCCN3)c1 [Example 50, 2-(3-fluorophenyl)-N-[2-(1H-indol-3-yl)ethyl]-7,8-dihydro-6H-pyrimido[5,4-b][1,4]oxazin-4-amine] |
| 1.02 nM | 0.324 nM | O=c1[nH]cc(F)cc1-c1nc2c(c(NCCc3c[nH]c4ccccc34)n1)OCCN2 [Example 66, 3-(4-((2-(1H-indol-3-yl)ethyl)amino)-7,8-dihydro-6H-pyrimido[5,4-b][1,4]oxazin-2-yl)-5-fluoropyridin-2-ol] |
| 3.39 nM | 6.92 nM | COC[C@@H]1COc2c(NCCc3c[nH]c4ccccc34)nc(-c3cc(F)cc(F)c3)nc2N1 [Example 49, (7R)-2-(3,5-difluorophenyl)-N-[2-(1H-indol-3-yl)ethyl]-7-(methoxymethyl)-7,8-dihydro-6H-pyrimido[5,4-b][1,4]oxazin-4-amine] |
